From PubChem BioAssay (NCI)
Several values for one entry are separate records, joined by “and”; a condition that tells them apart may be missing. Equal entries are not always repeated.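 Five compound concentrations were applied to cells in 96-well plates for 48 hours; endpoints were derived by simple linear interpolation of the resulting dose-response curve. Abbreviation: GI50, concentration required for 50% inhibition of growth. At the TGI there is no net growth.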

Assays:
Test in all cases: DTP human tumour cell line panel, 48 h
[1] = test system: KM20L2 colon
[2] = test system: DMS 114 small cell lung
[3] = test system: M19-MEL melanoma
[4] = test system: DLD-1 colon
[5] = test system: BT-549 breast
[6] = test system: MDA-MB-231 breast
[7] = test system: NCI/ADR-RES ovarian
[8] = test system: DU-145 prostate
[9] = test system: SNB-78 CNS
[10] = test system: DMS 273 small cell lung

Structure (SMILES) | TGI [1] | TGI [2] | TGI [3] | TGI [4] | GI50 [5] | TGI [5] | GI50 [6] | TGI [6] | GI50 [7] | TGI [7] | GI50 [8] | TGI [8] | TGI [9] | TGI [10]
C/C(=N\O)C(CN1CCCCC1)C(c1ccccc1)c1c(O)c2ccccc2oc1=O (stereo not given) | > 100 µM | > 100 µM | > 100 µM | > 100 µM | – | – | – | – | – | – | – | – | – | –
COc1cc(/C=C/C(=O)c2c(C)n([O-])c3ccc(Cl)cc3[n+]2=O)cc(OC)c1OC | – | – | – | – | 18.7 µM | 42.5 µM | 14.7 µM | 96.6 µM | 90.9 µM | > 100 µM | 21.7 µM | > 100 µM | – | –
O=C(CCCCCCC(=O)Nc1ccc2c(c1)/C(=C/c1ccc[nH]1)C(=O)N2)NO | – | – | – | – | 1.87 µM | 22 µM | 0.991 µM | 10 µM | 3.86 µM | > 100 µM | 0.969 µM | 41.6 µM | – | –
Cc1nn(-c2nc3ccccc3[nH]2)c2c1C(c1ccc3c(c1)OCO3)CC(=O)N2 (stereo not given) | – | – | – | – | 3.26 µM | 14.2 µM | 2.18 µM | 5.22 µM | 4.43 µM | > 100 µM | 3.23 µM | 9.12 µM | – | –
O=C(N/N=C\c1ccc(N(CCCl)CCCl)cc1Cl)c1cccnc1 | – | – | – | – | 22.7 µM | > 76 µM | 14.1 µM | 62.3 µM | 19.6 µM | > 94.3 µM | 16.2 µM | 59.6 µM | – | –
OC(CNc1ccnc2cc(Cl)ccc12)CNC1CCCCC1 (stereo not given) | – | – | – | – | 3.69 µM | 16.7 µM | 4.21 µM | 18.7 µM | 18 µM | 53.9 µM | 13.9 µM | 28.2 µM | – | –
O=C1c2c(nc3ccccc3c2-c2ccccc2)CN1Nc1ccccc1 | > 100 µM | > 100 µM | > 100 µM | > 100 µM | – | – | – | – | – | – | – | – | – | –
COc1ccccc1/C=N/N=C(\N)NO | – | > 100 µM | > 100 µM | > 100 µM | – | – | – | – | – | – | – | – | > 100 µM | –
COc1cc(-c2oc3c(OC)c(O)c(OC)c(O)c3c(=O)c2OC)ccc1O | – | – | – | – | – | > 100 µM | – | > 100 µM | – | > 100 µM | – | > 100 µM | – | –
O=C(/C=C/c1ccc(C(F)(F)F)cc1)c1ccc(Nc2nc(NCCO)nc(N3CCOCC3)n2)cc1 | – | – | – | – | 1.56 µM | 3.09 µM | 2.69 µM | 9.74 µM | 2.87 µM | 9.52 µM | 2.19 µM | 4.58 µM | – | –
COc1cc([N+](=O)[O-])c(OC)cc1-c1nc2sc(Cl)cn2c1/C=N/NC(=N)N/N=C/c1c(-c2cc(OC)c([N+](=O)[O-])cc2OC)nc2sc(Cl)cn12 | – | – | – | – | – | – | 1.59 µM | 3.4 µM | > 100 µM | > 100 µM | 1.91 µM | 4.06 µM | – | –
C=CC(=O)Nc1cccc(C)c1Nc1ncc2cc(-c3c(Cl)c(OC)cc(OC)c3Cl)ccc2n1 | – | – | – | – | 1.64 µM | 9.34 µM | 4.02 µM | 46.4 µM | 4.07 µM | 66.5 µM | 3.63 µM | > 100 µM | – | –
CC(=O)c1c[nH]cc1CO | – | – | – | – | – | – | – | – | – | > 10 µM | – | – | – | –
Clc1nc(Cl)c(Cc2ccccc2)c(Cl)n1 | – | – | – | – | – | 8.52 µM | – | 14.9 µM | – | > 100 µM | – | 28.7 µM | – | –
O=C(NCP(=O)(O)O)c1cccnc1 | – | – | – | – | – | > 100 µM | – | > 100 µM | – | > 100 µM | – | > 100 µM | – | –
Cc1ccc(/C=C2\CCCC\C2=N\O)cc1 | > 100 µM | – | > 100 µM | > 100 µM | – | – | – | – | – | – | – | – | > 100 µM | > 100 µM
COC(=O)[C@@H](C)C[C@H](Cc1ccccc1)NC(=O)c1csc([C@@H](C[C@H](C(C)C)N(C)C(=O)C2(NC(=O)[C@H]3CCCCN3C)CC2)OC(C)=O)n1 | – | – | – | – | 0.00549 µM and < 0.00333 µM | < 0.00333 µM | 0.00681 µM and 0.00333 µM | 4.36 µM | > 33.3 µM | > 33.3 µM | 0.00348 µM and 0.00333 µM | – | – | –
C=C1CC[C@@H]2[C@](C)(COC(C)=O)[C@H](OC(C)=O)CC[C@@]2(C)[C@@H]1C/C=C1/C(=O)OC[C@H]1OC(C)=O | – | – | – | – | 2.29 µM | 5.63 µM | 12.5 µM | 27.1 µM | 4.22 µM | 19.8 µM | 4.47 µM | 14.7 µM | – | –
N#C[S-].[Au+].c1ccc(CN2[CH-]N(Cc3ccccc3)C(c3ccccc3)=C2c2ccccc2)cc1 | – | – | – | – | 0.47 µM | 1.88 µM | – | – | – | – | 0.479 µM | 1.69 µM | – | –
CN(C)CCNC(=O)c1cc2c3ccccc3[nH]c2c2ncccc12 | – | – | – | – | 6.36 µM | 20.7 µM | 5.25 µM | 26.8 µM | 22.5 µM | > 100 µM | 11.5 µM | 30.7 µM | – | –
CN1CCn2c(c(Sc3ccc(C(=O)NO)cc3)c3ccccc32)C1=O | – | – | – | – | 1.92 µM | 4.3 µM | 2.13 µM | 5.09 µM | 8.82 µM | > 87.1 µM | 2.97 µM | 12.8 µM | – | –
C=C1C(=O)O[C@H]2[C@H]1CC/C(CNS(=O)(=O)c1cccc3ccccc13)=C\CC[C@@]1(C)O[C@@H]21 | – | – | – | – | 1.56 µM | 3.1 µM | 1.53 µM | 3.4 µM | 5.08 µM | 20.6 µM | 1.11 µM | 2.43 µM | – | –
Cc1ccc(S(=O)(=O)Nc2nc3ccccc3nc2Nc2ccc3nsnc3c2)cc1 | – | – | – | – | 4.25 µM and 3.42 µM | 26.3 µM and > 29.6 µM | 6.58 µM and 7.37 µM | 26.6 µM and > 100 µM | 3.2 µM and 3.52 µM | > 100 µM | 5.04 µM and 4.45 µM | > 100 µM | – | –
COc1ccc2c(c1)OC(N)=C(C#N)C2c1ccc(F)cc1 (stereo not given) | – | – | – | – | 1.63 µM | 31.2 µM | 3.09 µM | 97.5 µM | 0.516 µM | > 100 µM | 3.05 µM | > 100 µM | – | –
OCCNCCNc1c2ccccc2nc2oc3ccccc3c12 | – | – | – | – | 13.3 µM | 28.2 µM | 10.3 µM | 37.5 µM | 14.5 µM | 79.1 µM | 10.1 µM | 23.5 µM | – | –
Oc1ccc(N=Nc2ccc(N=Nc3ccccc3)cc2)cc1 | – | – | – | – | 0.899 µM | 9.06 µM | 2.5 µM | 7.09 µM | 3.67 µM | 39.5 µM | 2.09 µM | 12.2 µM | – | –
CCCN(CCC)C(=O)[C@H](CC)[C@@H]1CC[C@@H](C)[C@@H]([C@H](C)[C@@H](O)[C@@H](C)C(=O)[C@H](CC)C2O[C@]3(C=C[C@@H](O)[C@]4(CC[C@@](C)([C@H]5CC[C@](O)(CC)[C@H](C)O5)O4)O3)[C@H](C)C[C@@H]2C)O1 (stereo not given in full) | – | – | – | – | 3.05 µM | 13.2 µM | 1.62 µM | 3.28 µM | 2.93 µM | 10.3 µM | 2.05 µM | 4.21 µM | – | –
